Test systems include CAKI-1 renal; HCC-2998 colon; HOP-62 NSCLC; OVCAR-3 ovarian; SF-539 CNS; SK-MEL-5 melanoma; SK-OV-3 ovarian; SNB-75 CNS; HT29 colon; U251 CNS.
What all share (assay): NCI anticancer screen, dose series, 48 h

Structures are written as SMILES. Values joined by “and” are separate entries in the source; they are usually repeats but may differ in a detail not shown here. Equal entries are not always repeated.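 The compound was tested at five concentrations on cells cultured in 96-well plates, with a 48-hour exposure period. Here, GI50 denotes the concentration required for 50% inhibition of growth. TGI denotes the concentration required for complete inhibition of growth.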

On to `CCN1CCN(c2nc(NNC(=O)c3cccc(OC)c3)nc(N3CCN(C(c4ccccc4)c4ccccc4)CC3)n2)CC1`, for which the GI50 in the assay with CAKI-1 renal was 1.54 µM; with HCC-2998 colon, 1.96 µM; with HOP-62 NSCLC, 5.76 µM; in the assay with OVCAR-3 ovarian it was 1.94 µM; with SF-539 CNS it was 1.65 µM; in the assay with SK-MEL-5 melanoma, 1.64 µM. For the same compound, the GI50 is 2.72 µM with SK-OV-3 ovarian and 0.201 µM in the assay with SNB-75 CNS. In addition, the TGI in the assay on CAKI-1 renal amounted to 3.1 µM; in the assay on HCC-2998 colon, 4.33 µM; in the assay with HOP-62 NSCLC, 23.5 µM; with OVCAR-3 ovarian, 3.78 µM; with SF-539 CNS, 3 µM; in the assay on SK-MEL-5 melanoma it was 3 µM. In addition, the TGI with SK-OV-3 ovarian amounted to 7.08 µM; in the assay on SNB-75 CNS, 7.71 µM.
`CC(=O)OC1CC2C(C)(C)C(=O)C=C[C@]2(C)C2CCC3(C)C(=CCC3[C@H](CO)C[C@H](O)C(=O)C(C)(C)O)[C@]12C` (some centres undefined): the TGI with CAKI-1 renal is 55.3 µM; in the assay with HCC-2998 colon, 34.1 µM; with HT29 colon it was 28.1 µM; in the assay with OVCAR-3 ovarian it was 35.4 µM; in the assay on SF-539 CNS, 35.1 µM; in the assay on SK-MEL-5 melanoma, 42 µM. For the same compound, the TGI turned out to be 48.2 µM in the assay with SK-OV-3 ovarian, 91.6 µM in the assay on SNB-75 CNS and 31.5 µM in the assay on U251 CNS.
Regarding `Cc1ccc(S(=O)(=O)N/N=C/CN2C(=O)c3ccccc3C2=O)cc1`, the TGI with CAKI-1 renal, in the assay with HCC-2998 colon, in the assay with HOP-62 NSCLC, in the assay on HT29 colon, with SF-539 CNS and with SK-MEL-5 melanoma was more than 100 µM each time. For the same compound, the TGI in the assay on SNB-75 CNS and with U251 CNS was more than 100 µM in each case.
As for `CCC1C(=O)OCc2c1cc1n(c2=O)Cc2ccccc2-1` (centres undefined), the TGI in the assay with CAKI-1 renal, in the assay with HCC-2998 colon, with HOP-62 NSCLC, in the assay on HT29 colon, in the assay with OVCAR-3 ovarian and with SF-539 CNS was more than 100 µM throughout. The TGI with SK-MEL-5 melanoma and with SNB-75 CNS was more than 100 µM each time.
`CCCN(CCC)c1c([N+](=O)[O-])cc(C(N)=O)cc1[N+](=O)[O-]`: the TGI in the assay on CAKI-1 renal was more than 100 µM; in the assay on HCC-2998 colon, more than 100 µM; in the assay on HT29 colon, more than 100 µM; in the assay on OVCAR-3 ovarian it was more than 100 µM; with SF-539 CNS it was more than 100 µM; with SK-MEL-5 melanoma, 53.8 µM. Also, the TGI in the assay on SK-OV-3 ovarian, in the assay on SNB-75 CNS and with U251 CNS was more than 100 µM each time.
`O=C(O)c1ccccc1/C=C1/Nc2ccccc2C1=O`: the TGI in the assay on CAKI-1 renal, with HCC-2998 colon, in the assay with HOP-62 NSCLC, in the assay with HT29 colon, in the assay with OVCAR-3 ovarian and with SF-539 CNS was more than 100 µM throughout. Also, the TGI in the assay on SK-OV-3 ovarian, in the assay on SNB-75 CNS and in the assay on U251 CNS was more than 100 µM each time.
`COc1ccccc1NC(=O)NS(=O)(=O)c1ccccc1`: the TGI in the assay with CAKI-1 renal, with HCC-2998 colon, with HOP-62 NSCLC, with HT29 colon, in the assay on SF-539 CNS and in the assay with SK-MEL-5 melanoma was more than 100 µM throughout. The TGI with SNB-75 CNS and in the assay with U251 CNS was more than 100 µM throughout.
Take `NC(=S)c1cn(C2OC(CO)C(O)C2O)c2ncnc(N)c12` (centres undefined): the GI50 is 0.221 µM in the assay with CAKI-1 renal; 0.208 µM with HCC-2998 colon; 0.065 µM in the assay with HOP-62 NSCLC; 0.181 µM with HT29 colon; 0.173 µM in the assay on OVCAR-3 ovarian; 0.27 µM with SF-539 CNS. In addition, the values for the GI50 in the assay on SK-MEL-5 melanoma, in the assay on SNB-75 CNS and with U251 CNS were 0.223 µM, 0.223 µM and 0.292 µM, respectively. In addition, the TGI in the assay on CAKI-1 renal was 2.22 µM; in the assay with HCC-2998 colon, 0.998 µM; with HOP-62 NSCLC, 1.95 µM; in the assay with HT29 colon, 3.96 µM; in the assay on OVCAR-3 ovarian it was 1.23 µM; with SF-539 CNS, 1.55 µM. For the same compound, the figures for the TGI in the assay on SK-MEL-5 melanoma, in the assay with SNB-75 CNS and with U251 CNS were 0.975 µM, 1.84 µM and 8.71 µM, respectively.
In the case of `Cc1cccc2c1C(=O)OC2(c1cccc2ccccc12)c1cccc2ccccc12`, the TGI in the assay with CAKI-1 renal, in the assay with HCC-2998 colon, in the assay with HOP-62 NSCLC, in the assay on HT29 colon, in the assay on OVCAR-3 ovarian and with SK-MEL-5 melanoma was more than 100 µM each time. For the same compound, the TGI in the assay on SK-OV-3 ovarian, in the assay with SNB-75 CNS and in the assay with U251 CNS was more than 100 µM each time.
Consider `CCc1cc2c(c3[nH]ccc13)[C@@H](C)C[C@H]2C`, for which the TGI amounted to 34.7 µM in the assay on CAKI-1 renal; 38.3 µM with HCC-2998 colon; 43.8 µM in the assay with HT29 colon; 37.1 µM in the assay on OVCAR-3 ovarian; 31.9 µM in the assay on SK-MEL-5 melanoma; 54.9 µM with SK-OV-3 ovarian. In addition, the figures for the TGI in the assay on SNB-75 CNS and with U251 CNS were 38 µM and 31.6 µM, respectively.
As to `CO[C@H]1/C=C/C=C/C=C/C[C@H](OC(=O)[C@@H](C)NC(=O)C2CCCCC2)[C@H](C)[C@@H](O)/C(C)=C\CCC2=CC(=O)C=C(NC(=O)C1)C2=O`, the GI50 in the assay with HCC-2998 colon was 0.109 µM; in the assay with HOP-62 NSCLC, 0.125 µM; in the assay with HT29 colon, 0.0801 µM; in the assay with OVCAR-3 ovarian, 0.154 µM; with SF-539 CNS, 0.128 µM; in the assay with SK-MEL-5 melanoma, 0.0845 µM. The GI50 in the assay on SK-OV-3 ovarian is 0.187 µM; in the assay on SNB-75 CNS it was 0.0832 µM; in the assay with U251 CNS it was 0.0985 µM. Also, the TGI with HCC-2998 colon stood at 0.762 µM; in the assay on HOP-62 NSCLC, 0.68 µM; in the assay on HT29 colon it was 0.513 µM; in the assay with OVCAR-3 ovarian, 0.997 µM; with SF-539 CNS, 0.519 µM; in the assay on SK-MEL-5 melanoma, 0.521 µM. The TGI with SK-OV-3 ovarian was determined as 1.83 µM; in the assay with SNB-75 CNS, 1.7 µM; in the assay with U251 CNS, 0.953 µM.
As for `COc1cc2cc(C(=O)N3C[C@H](CCl)c4c3cc(O)c3ccccc43)[nH]c2c(OC)c1OC`, the GI50 with CAKI-1 renal was less than 0.01 µM; in the assay on HCC-2998 colon, 0.0286 µM; in the assay on HOP-62 NSCLC it was 0.0157 µM; with HT29 colon, 2.64 µM; in the assay on OVCAR-3 ovarian, 0.0474 µM; in the assay on U251 CNS it was 0.019 µM. Besides, the TGI was 0.654 µM and 1.13 µM in the assay on HCC-2998 colon; 0.198 µM and 1.06 µM in the assay on HOP-62 NSCLC; 6.82 µM with HT29 colon; 14.4 µM with OVCAR-3 ovarian; 0.192 µM with SF-539 CNS; 0.0439 µM with SK-MEL-5 melanoma. The TGI is 0.449 µM in the assay with SNB-75 CNS; 3.23 µM and 3.06 µM in the assay on U251 CNS.

The values are drawn from PubChem BioAssay (NCI).
